Data: patent US11051515B2, “3-acyl-benzamides and their use as herbicides” (Bayer Aktiengesellschaft, priority 2017, dated 2021)

Key:
SETVI [1] = assay: Post-emergence action against SETVI; type: in vivo, Setaria viridis; conditions: post-emergence, dosage 80 g/ha, visual assessment about 3 weeks after treatment vs untreated controls
Method in brief: (§1)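 Weeds grown in sandy loam in greenhouse, treated at one-leaf stage (2–3 weeks after sowing) with WP or EC formulations sprayed as aqueous suspension/emulsion at 600 to […] water with 0.2% wetting agent. Visual rating after about 3 weeks versus untreated controls, as % herbicidal action (100% = plants dead, 0% = like control).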

LOLMU = assay: Pre-emergence action against LOLMU; type: in vivo, Lolium multiflorum; conditions: dosage 320 g/ha, scored visually after 3 weeks vs untreated controls
Source text: Seeds of monocotyledonous and dicotyledonous weed plants and crop plants are laid out in sandy loam soil in wood-fiber pots and covered with soil. The compounds of the invention, formulated in the form of wettable powders (WP) or as emulsion concentrates (EC), are then applied to the surface of the covering soil in the form of an aqueous suspension or emulsion at a water application rate equating to […], with addition of 0.2% wetting agent. After the treatment, the pots are placed in a greenhouse and kept under good growth conditions for the trial plants. The damage to the test plants is scored visually after a test period of 3 weeks by comparison with untreated controls (herbicidal activity in percent (%): 100% activity=the plants have died, 0% activity=like control plants).

ABUTH [2] = assay: Pre-emergence action against ABUTH; type: in vivo, Abutilon theophrasti; conditions: pre-emergence, dosage 320 g/ha, scored visually after 3 weeks vs untreated controls
Method in brief: (§2)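 Seeds sown in sandy loam in wood-fiber pots and covered with soil. Greenhouse growth; visual damage scored after 3 weeks versus untreated controls (100% = dead, 0% = like control).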

CYPES = assay: Pre-emergence action against CYPES; type: in vivo, Cyperus esculentus; conditions: pre-emergence, dosage 320 g/ha, scored visually after 3 weeks vs untreated controls
Method in brief: as §2

STEME [3] = assay: Post-emergence action against STEME; type: in vivo, Stellaria media; conditions: post-emergence, dosage 80 g/ha
Method in brief: as §1

AMARE [4] = assay: Pre-emergence action against AMARE; type: in vivo, Amaranthus retroflexus; conditions: pre-emergence, dosage 320 g/ha, scored visually after 3 weeks vs untreated controls
Method in brief: as §2

ECHCG [5] = assay: Pre-emergence action against ECHCG; type: in vivo, Echinochloa crus-galli; conditions: pre-emergence, dosage 320 g/ha, scored visually after 3 weeks vs untreated controls
Method in brief: as §2

SETVI [6] = assay: Pre-emergence action against SETVI; type: in vivo, Setaria viridis; conditions: pre-emergence, dosage 320 g/ha, scored visually after 3 weeks vs untreated controls
Method in brief: as §2

VIOTR [7] = assay: Pre-emergence action against VIOTR; type: in vivo, Viola tricolor; conditions: Dosage 320 g/ha, pre-emergence
Method in brief: as §2

VIOTR [8] = assay: Post-emergence action against VIOTR; type: in vivo, Viola tricolor; conditions: post-emergence, dosage 80 g/ha
Method in brief: as §1

ALOMY [9] = assay: Post-emergence action against ALOMY; type: in vivo, Alopecurus myosuroides; conditions: Dosage 80 g/ha, post-emergence
Method in brief: as §1

AMARE [10] = assay: Post-emergence action against AMARE; type: in vivo, Amaranthus retroflexus; conditions: post-emergence, dosage 80 g/ha, visual assessment about 3 weeks after treatment vs untreated controls
Method in brief: as §1

STEME [11] = assay: Pre-emergence action against STEME; type: in vivo, Stellaria media; conditions: Dosage 320 g/ha, pre-emergence
Method in brief: as §2

PHBPU [12] = assay: Post-emergence action against PHBPU; type: in vivo, Pharbitis purpurea; conditions: post-emergence, dosage 80 g/ha
Method in brief: as §1

MATIN [13] = assay: Post-emergence action against MATIN; type: in vivo, Matricaria inodora; conditions: post-emergence, dosage 80 g/ha, visual assessment about 3 weeks after treatment vs untreated controls
Method in brief: as §1

PHBPU [14] = assay: Pre-emergence action against PHBPU; type: in vivo, Pharbitis purpurea; conditions: Dosage 320 g/ha, pre-emergence
Method in brief: as §2

VERPE [15] = assay: Pre-emergence action against VERPE; type: in vivo, Veronica persica; conditions: Dosage 320 g/ha, pre-emergence
Method in brief: as §2

VERPE [16] = assay: Post-emergence action against VERPE; type: in vivo, Veronica persica; conditions: dosage 80 g/ha
Method in brief: as §1

MATIN [17] = assay: Pre-emergence action against MATIN; type: in vivo, Matricaria inodora; conditions: Dosage 320 g/ha, pre-emergence
Method in brief: as §2

ECHCG [18] = assay: Post-emergence action against ECHCG; type: in vivo, Echinochloa crus-galli; conditions: post-emergence, dosage 80 g/ha, visual assessment about 3 weeks after treatment vs untreated controls
Method in brief: as §1

POLCO [19] = assay: Post-emergence action against POLCO; type: in vivo, Polygonum convolvulus; conditions: post-emergence, dosage 80 g/ha
Method in brief: as §1

AVEFA [20] = assay: Post-emergence action against AVEFA; type: in vivo, Avena fatua; conditions: post-emergence, dosage 80 g/ha, visual assessment about 3 weeks after treatment vs untreated controls
Method in brief: as §1

POLCO [21] = assay: Pre-emergence action against POLCO; type: in vivo, Polygonum convolvulus; conditions: Dosage 320 g/ha, pre-emergence
Method in brief: as §2

ALOMY [22] = assay: Pre-emergence action against ALOMY; type: in vivo, Alopecurus myosuroides; conditions: dosage 320 g/ha; pre-emergence; scored visually after 3 weeks vs untreated controls; 100% = plants have died, 0% = like control plants
Method in brief: as §2

ABUTH [23] = assay: Post-emergence action against ABUTH; type: in vivo, Abutilon theophrasti; conditions: post-emergence, dosage 80 g/ha, visual assessment about 3 weeks after treatment vs untreated controls
Method in brief: as §1

AVEFA [24] = assay: Pre-emergence action against AVEFA; type: in vivo, Avena fatua; conditions: dosage 320 g/ha, scored visually after 3 weeks vs untreated controls
Method in brief: as §2

LOLRI [25] = assay: Post-emergence action against LOLRI; type: in vivo, Lolium rigidum; conditions: dosage 80 g/ha, visual assessment about 3 weeks after treatment vs untreated controls
Method: Seeds of monocotyledonous and dicotyledonous weed and crop plants are laid out in sandy loam soil in wood-fiber pots, covered with soil and cultivated in a greenhouse under good growth conditions. 2 to 3 weeks after sowing, the test plants are treated at the one-leaf stage. The compounds of the invention, formulated in the form of wettable powders (WP) or as emulsion concentrates (EC), are then sprayed onto the green parts of the plants in the form of an aqueous suspension or emulsion at a water application rate equating to […], with addition of 0.2% wetting agent. After the test plants have been left to stand in the greenhouse under optimal growth conditions for about 3 weeks, the action of the preparations is assessed visually in comparison to untreated controls (herbicidal action in percent (%): 100% activity=the plants have died, 0% activity=like control plants). […] At the same time, inventive compounds leave Gramineae crops such as barley, wheat, rye, millet/Sorghum, corn or rice virtually undamaged when applied post-emergence, even at high active ingredient dosages. In addition, some substances are also harmless to dicotyledonous crops such as soya, cotton, oilseed rape, sugar beet or potatoes. Some of the compounds according to the invention have high selectivity and are therefore suitable for controlling unwanted vegetation in agricultural crops by the post-emergence method. The data of Tables B18 to B34 below illustrate, in an exemplary manner, the […] herbicidal action of the compounds according to the invention, the herbicidal activity being stated in percent.

LOLRI [26] = assay: Pre-emergence action against LOLRI; type: in vivo, Lolium rigidum; conditions: dosage 320 g/ha, scored visually after 3 weeks vs untreated controls
Method in brief: as §2

| Structure (SMILES) | Post-emergence action against SETVI (herbicidal action in percent) (SETVI [1]) | Pre-emergence action against ABUTH (herbicidal activity) (ABUTH [2]) | Pre-emergence action against CYPES (herbicidal activity) (CYPES) | Pre-emergence action against AMARE (herbicidal activity) (AMARE [4]) | Pre-emergence action against ECHCG (herbicidal activity) (ECHCG [5]) | SETVI (Table B8, pre-emergence herbicidal activity) (SETVI [6]) | Pre-emergence action against VIOTR (VIOTR [7]) | Post-emergence action against AMARE (herbicidal action in percent) (AMARE [10]) | Pre-emergence action against STEME (STEME [11]) | Post-emergence action against PHBPU (PHBPU [12]) | Post-emergence action against MATIN (herbicidal action in percent) (MATIN [13]) | Pre-emergence action against VERPE (VERPE [15]) | Pre-emergence action against MATIN (MATIN [17]) | Post-emergence action against ECHCG (herbicidal action in percent) (ECHCG [18]) | Post-emergence action against AVEFA (herbicidal action in percent) (AVEFA [20]) | Pre-emergence action against ALOMY (herbicidal activity in percent) (ALOMY [22]) | Post-emergence action against ABUTH (herbicidal action in percent) (ABUTH [23]) | Pre-emergence action against AVEFA (herbicidal activity) (AVEFA [24]) | further results |
| --- | --- | --- | --- | --- | --- | --- | --- | --- | --- | --- | --- | --- | --- | --- | --- | --- | --- | --- | --- |
| CCn1nnnc1NC(=O)c1ccc(C(F)(F)F)c(C(=O)C2CC2)c1OC [2-50] | 100% | 100% | 100% | 100% | 100% | 100% | 100% | 100% | 100% | 100 | 100% | 100% | 100% | 100% | 90% | 100% | 90% | 100% | Pre-emergence action against LOLMU (herbicidal activity) (LOLMU): 100%; Post-emergence action against STEME (STEME [3]): 100; Post-emergence action against VIOTR (VIOTR [8]): 100; Post-emergence action against ALOMY (ALOMY [9]): 90%; Pre-emergence action against PHBPU (PHBPU [14]): 100%; Post-emergence action against VERPE (VERPE [16]): 90; Post-emergence action against POLCO (POLCO [19]): 90; Pre-emergence action against POLCO (POLCO [21]): 80% |
| CCn1nnnc1NC(=O)c1ccc(C(F)(F)F)c(C(=O)C2(C)CC2)c1Cl [2-147] | 80% | 100% | 80% | 100% | 100% | 100% | 100% | 80% | 100% | 90 | 100% | 80% | 100% | 80% | 80% | 90% | 90% | 90% | Post-emergence action against LOLRI (herbicidal action in percent) (LOLRI [25]): 80%; Pre-emergence action against LOLRI (herbicidal activity) (LOLRI [26]): 90% |
